What was measured:
[1] = molecular target: T1, human orexin 2 receptor (hOX2R) (Homo sapiens, UniProt O43614); assay: Measurement of orexin antagonist activity (intracellular Ca2+ fluorescence, FDSS) in CHO cells expressing hOX2R; type: cell-based; details: CHO cells forcibly expressing hOX2R; ligand (two-amino-acid-substituted human orexin-A) 3 nM; Fluo 4-AM; read-out: IC50 value OX2
T1 construct: expressed in transfected cells; host or cells: Chinese hamster ovary (CHO) cells
T1 sequence (O43614 1-444): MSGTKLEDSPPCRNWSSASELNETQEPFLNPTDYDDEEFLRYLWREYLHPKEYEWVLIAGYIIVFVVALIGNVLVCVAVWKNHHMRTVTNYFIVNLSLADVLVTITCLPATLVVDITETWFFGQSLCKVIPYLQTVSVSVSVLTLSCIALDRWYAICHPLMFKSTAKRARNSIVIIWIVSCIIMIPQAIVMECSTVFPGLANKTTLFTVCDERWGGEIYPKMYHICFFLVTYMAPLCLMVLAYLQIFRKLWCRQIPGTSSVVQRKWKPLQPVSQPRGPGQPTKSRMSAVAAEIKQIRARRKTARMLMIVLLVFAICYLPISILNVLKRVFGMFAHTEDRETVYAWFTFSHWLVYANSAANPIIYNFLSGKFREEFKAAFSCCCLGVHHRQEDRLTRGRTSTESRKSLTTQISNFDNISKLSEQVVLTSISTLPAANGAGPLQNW
Procedure: (§1) The antagonist activity of a test compound against the human orexin 1 receptor (hOX1R) or orexin 2 receptor (hOX2R) was measured by the method described in the document (Toshikatsu Okumura et al., Biochemical and Biophysical Research Communications, 280, 976-981, 2001) with appropriate modification. Chinese hamster ovary (CHO) cells forcibly expressing hOX1R or hOX2R were seeded into each well of a 96-well Black clear bottom plate (Nunc A/S) in the amount of 20000 cells per well and were cultured in a Ham's F-12 medium (Invitrogen, Inc.) containing 0.1 mM MEM non-essential amino acids (Invitrogen, Inc.), 0.5 mg/mL G418 (Invitrogen, Inc.), and 10% fetal calf serum (Invitrogen, Inc.) at 37° C. in 5% CO2 for 16 hours. The medium was removed, and then added to each well was 100 μL of an assay buffer (pH 7.4) containing 0.5 μM Fluo 4-AM ester (Dojindo Laboratories), wherein the buffer was composed of 25 mM HEPES (Dojindo Laboratories), a Hanks' balanced salt solution (Invitrogen, Inc.), 0.1% bovine serum albumin (Sigma-Aldrich Co., LLC.), 2.5 mM probenecid (Sigma-Aldrich Co., LLC.), and 200 μg/mL Amaranth (Sigma-Aldrich Co., LLC.), followed by incubation at 37° C. in 5% CO2 for 60 min. The assay buffer containing Fluo 4-AM ester was removed, and then 150 μL of an assay buffer solution containing 10 mM of the test compound dissolved in dimethyl sulfoxide was added to each well, followed by incubation for 30 min.
(§2) A peptide (Pyr-[…]NH2: Peptide Institute, Inc.), which is a ligand having substitution of two amino acids in human orexin-A, was diluted with an assay buffer to a final concentration of 300 pM for hOX1R and to a final concentration of 3 nM for hOX2R. The reaction was started by adding 50 μL of this ligand solution to each well. The reaction was monitored by measuring the fluorescence of each well at each 1 second for 3 min with a Functional Drug Screening System (FDSS manufactured by Hamamatsu Photonics K.K.), and the antagonist activity was determined based on the maximum fluorescence value as an index of the intracellular Ca^2+ concentration. The antagonist activity of a test compound was calculated by assuming that the fluorescence value of the well containing only a dilution buffer was 100% and that the fluorescence value of the well containing a buffer not containing the ligand or any test compound was 0%. The 50% inhibitory concentration (IC50 value) of a test compound was determined from fluorescence values at various concentrations of the test compound.

[2] = molecular target: T2, human orexin 1 receptor (hOX1R) (Homo sapiens, UniProt O43613); assay: Measurement of orexin antagonist activity (intracellular Ca2+ fluorescence, FDSS) in CHO cells expressing hOX1R; type: cell-based; details: CHO cells forcibly expressing hOX1R; ligand (two-amino-acid-substituted human orexin-A) 300 pM; Fluo 4-AM; read-out: IC50 value OX1
T2 construct: expressed in transfected cells; host or cells: Chinese hamster ovary (CHO) cells
T2 sequence (O43613 1-425): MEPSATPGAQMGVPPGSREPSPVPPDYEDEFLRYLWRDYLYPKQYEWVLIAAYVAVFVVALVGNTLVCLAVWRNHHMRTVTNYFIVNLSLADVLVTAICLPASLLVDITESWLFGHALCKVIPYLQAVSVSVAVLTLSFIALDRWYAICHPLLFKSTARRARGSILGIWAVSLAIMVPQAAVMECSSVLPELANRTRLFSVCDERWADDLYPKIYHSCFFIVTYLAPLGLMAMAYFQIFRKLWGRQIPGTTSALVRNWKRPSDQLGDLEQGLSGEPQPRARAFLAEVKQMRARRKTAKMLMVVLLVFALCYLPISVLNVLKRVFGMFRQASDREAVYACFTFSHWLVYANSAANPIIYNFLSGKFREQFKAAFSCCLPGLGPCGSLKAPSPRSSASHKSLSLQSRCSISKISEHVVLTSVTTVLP
Procedure: as §1, §2

IC50 [1] [nM] | IC50 [2] [nM] | Structure (SMILES)
10.3 | 3 | CCN(CCc1ccn(-c2cccc(C)n2)n1)C(=O)c1ccccc1-n1nccn1 [Example 23, N-ethyl-N-{2-[1-(6-methylpyridin-2-yl)-1H-pyrazol-3-yl]ethyl}-2-(2H-1,2,3-triazol-2-yl) benzamide]
2.8 | 0.4 | CCN(CCc1ccn(-c2ccc(F)cn2)n1)C(=O)c1ccc(F)cc1-n1nccn1 [Example 17, N-Ethyl-4-fluoro-N-{2-[1-(5-fluoropyridin-2-yl)-1H-pyrazol-3-yl]ethyl}-2-(2H-1,2,3-triazol-2-yl)benzamide]
8.5 | 0.7 | Cc1ccc(-n2nccn2)c(C(=O)N(C)CCc2cnn(-c3ccc(F)cn3)c2)c1 [Example 2, N-{2-[1-(5-Fluoropyridin-2-yl)-1H-pyrazol-4-yl]ethyl}-N,5-dimethyl-2-(2H-1,2,3-triazol-2-yl)benzamide]
26.4 | 17 | CCN(CCc1cc(-c2ccc(F)cn2)no1)C(=O)c1cc(C)ccc1-n1nccn1 [Example 11, N-Ethyl-N-{2-[3-(5-fluoropyridin-2-yl)-1,2-oxazol-5-yl]ethyl}-5-methyl-2-(2H-1,2,3-triazol-2-yl)benzamide]
3.4 | 8.9 | CCN(CCc1cn(-c2ccc(F)cn2)cn1)C(=O)c1cc(C)ccc1-n1nccn1 [Example 13, N-Ethyl-N-{2-[1-(5-fluoropyridin-2-yl)-1H-imidazol-4-yl]ethyl}-5-methyl-2-(2H-1,2,3-triazol-2-yl)benzamide]
60.6 | 4.2 | CCN(CCc1cnn(-c2ccc(F)cn2)c1)C(=O)c1ccccc1-n1nccn1 [Example 3, N-Ethyl-N-{2-[1-(5-fluoropyridin-2-yl)-1H-pyrazol-4-yl]ethyl}-2-(2H-1,2,3-triazol-2-yl)benzamide]
50.8 | 11.6 | CCN(CCc1ccn(-c2ccc(F)cn2)n1)C(=O)c1c(F)cccc1-c1ncccn1 [Example 21, N-ethyl-2-fluoro-N-{2-[1-(5-fluoropyridin-2-yl)-1H-pyrazol-3-yl]ethyl}-6-(pyrimidin-2-yl) benzamide]
69.8 | 61 | CCN(CCc1noc(-c2ccc(F)c(F)c2)n1)C(=O)c1cc(F)ccc1-c1ncccn1 [Example 43, N-{2-[5-(3,4-difluorophenyl)-1,2,4-oxadiazol-3-yl]ethyl}-N-ethyl-5-fluoro-2-(pyrimidin-2-yl) benzamide]
10.6 | 2.2 | CCN(CCc1ccn(-c2ccc(F)cc2)n1)C(=O)c1ccccc1-n1nccn1 [Example 22, N-Ethyl-N-{2-[1-(4-fluorophenyl)-1H-pyrazol-3-yl]ethyl}-2-(2H-1,2,3-triazol-2-yl)benzamide]
13.2 | 1.9 | CCN(CCc1ccn(-c2ccc(F)cc2)n1)C(=O)c1ccccc1-c1ncccn1 [Example 30, N-ethyl-N-{2-[1-(4-fluorophenyl)-1H-pyrazol-3-yl]ethyl}-2-(pyrimidine-2-yl)benzamide]
133 | 14.8 | CN(CCc1noc(-c2ccc(F)c(F)c2)n1)C(=O)c1ccccc1-n1nccn1 [Example 32, N-{2-[5-(3,4-difluorophenyl)-1,2,4-oxadiazol-3-yl]ethyl}-N-methyl-2-(2H-1,2,3-triazol-2-yl) benzamide]
3.3 | 1.6 | CCN(CCc1ccn(-c2ccc(F)c(F)c2)n1)C(=O)c1ccccc1-n1nccn1 [Example 25, N-{2-[1-(3,4-difluorophenyl)-1H-pyrazol-3-yl]ethyl}-N-ethyl-2-(2H-1,2,3-triazol-2-yl) benzamide]
5.2 | 1.8 | CCN(CCc1cnn(-c2ccc(F)cn2)c1)C(=O)c1cc(C)ccc1-n1nccn1 [Example 1, N-Ethyl-N-{2-[1-(5-fluoropyridin-2-yl)-1H-pyrazol-4-yl]ethyl}-5-methyl-2-(2H-1,2,3-triazol-2-yl)benzamide]
2530 | 1190 | CN(CCc1noc(-c2ccc(F)cn2)n1)C(=O)c1ccccc1-n1nccn1 [Example 33, N-{2-[5-(5-fluoropyridin-2-yl)-1,2,4-oxadiazol-3-yl]ethyl}-N-methyl-2-(2H-1,2,3-triazol-2-yl) benzamide]
13.9 | 2.4 | Cc1ccc(-n2nccn2)c(C(=O)N(C)CCc2noc(-c3ccc(F)cc3)n2)c1 [Example 35, N-{2-[5-(4-fluorophenyl)-1,2,4-oxadiazol-3-yl]ethyl}-N,5-dimethyl-2-(2H-1,2,3-triazol-2-yl) benzamide]
7.4 | 0.9 | CCN(CCc1ccn(-c2ccc(F)cn2)n1)C(=O)c1ccccc1-c1ncccn1 [Example 19, N-ethyl-N-{2-[1-(5-fluoropyridin-2-yl)-1H-pyrazol-3-yl]ethyl}-2-(pyrimidin-2-yl) benzamide]
17.3 | 0.7 | CCN(CCc1noc(-c2ccc(F)cc2)n1)C(=O)c1cc(C)ccc1-c1ncccn1 [Example 39, N-ethyl-N-{2-[5-(4-fluorophenyl)-1,2,4-oxadiazol-3-yl]ethyl}-5-methyl-2-(pyrimidin-2-yl)benzamide]
31.6 | 1.6 | CCN(CCc1noc(-c2ccc(F)cc2)n1)C(=O)c1ccccc1-n1nccn1 [Example 41, N-ethyl-N-{2-[5-(4-fluorophenyl)-1,2,4-oxadiazol-3-yl]ethyl}-2-(2H-1,2,3-triazol-2-yl) benzamide]
30.5 | 3.3 | CN(CCc1ccn(-c2ccc(F)cn2)n1)C(=O)c1cc(Cl)ccc1-n1nccn1 [Example 16, 5-Chloro-N-{2-[1-(5-fluoropyridin-2-yl)-1H-pyrazol-3-yl]ethyl}-N-methyl-2-(2H-1,2,3-triazol-2-yl)benzamide]
8 | 2.1 | Cc1ccc(-n2nccn2)c(C(=O)N(C)CCc2ccn(-c3ccc(F)cn3)n2)c1 [Example 5, N-{2-[1-(5-Fluoropyridin-2-yl)-1H-pyrazol-3-yl]ethyl}-N,5-dimethyl-2-(2H-1,2,3-triazol-2-yl)benzamide]
6.3 | 1.6 | CCN(CCc1ccn(-c2ccc(F)cn2)n1)C(=O)c1c(F)cccc1-n1nccn1 [Example 18, N-ethyl-2-fluoro-N-{2-[1-(5-fluoropyridin-2-yl)-1H-pyrazol-3-yl]ethyl}-2-(2H-1,2,3-triazol-2-yl) benzamide]
21.3 | 1.8 | CCN(CCc1cc(-c2ccc(F)cn2)on1)C(=O)c1cc(C)ccc1-n1nccn1 [Example 10, N-Ethyl-N-{2-[5-(5-fluoropyridin-2-yl)-1,2-oxazol-3-yl]ethyl}-5-methyl-2-(2H-1,2,3-triazol-2-yl)benzamide]
3.8 | 1.8 | CCN(CCc1ccn(-c2ccc(F)cn2)n1)C(=O)c1cc(C)ccc1-n1nccn1 [Example 8, N-Ethyl-N-{2-[1-(5-fluoropyridin-2-yl)-1H-pyrazol-3-yl]ethyl}-5-methyl-2-(2H-1,2,3-triazol-2-yl)benzamide]

Reference: US20140081025A1, “HETEROAROMATIC RING DERIVATIVE” (TAISHO PHARMACEUTICAL CO., LTD., priority 2011, published 2014)
